We go through 81 molecules from the METLIN SMRT retention time set (Domingo-Almenara et al. 2019).

The nature of this series: gradient 5% acetonitrile 3 min, to 50% in 2 min, to 85% in 15 min, held 3 min, 100 µL/min. The conditions noted are these: column: Zorbax Extend-C18 2.1 x 50 mm; eluents: water / acetonitrile, 0.1% formic acid. The gist of the method:
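The mobile phases were water and acetonitrile, each with 0.1% formic acid, pumped at 100 μL/min through a Zorbax Extend-C18 column (2.1 × 50 mm, 1.8 μm). Pure standards were injected as mixtures of ~100 molecules and detected by a quadrupole time-of-flight mass spectrometer in positive and negative ionization mode. Retention time came from computationally picked adduct peaks, each inspected by hand.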
`Cc1[nH]c(=O)[nH]c(=O)c1CCC(=O)N1CCC(c2nc3ccccc3s2)CC1` registered an RP-LC retention time of 592 s.
Under `N#Cc1cccc(NC(=O)c2cc(C3CC3)n3nccc3n2)c1` stands 942 s; under `Cc1ccc(-c2nnc(Cc3nc(-c4ccc(Br)cc4)no3)o2)cc1F`, 1220 s.
With `COc1ccccc1N1CCN(S(=O)(=O)c2cc3c(s2)CCN(C(C)=O)C3)CC1`, the RP-LC retention time was determined as 838 s.
Under `CCn1c(-c2cccc(C(=O)NCc3cccs3)c2)nc2cccnc21` stands 733 s; under `CC(C)CCNC(=O)C1CCN(c2nc3ccsc3c(=O)n2Cc2ccccc2)CC1`, 890 s.
To `CC1=C(C(=O)Nc2cccc(Cl)c2C)C2(CCCCCC2)OC1=O` belongs 1090 s; to `NC(=O)c1cc[nH]c1C1CCCN(C(=O)c2ccc(Cn3cncn3)o2)C1` (stereo unspecified), 560 s.
To `CCCS(=O)(=O)N1CCC(c2noc(-c3ccccc3)n2)C1` (stereo unspecified) belongs 933 s; to `Cc1cc2[nH]c(C(=O)Nc3ccc(Cl)cc3Cl)c(CN3CCOCC3)c2s1`, 759 s.
Turning to `Cc1nnc2cc(N3CCN(S(=O)(=O)c4ccc(CC(C)C)cc4)CC3)cnn12`, the RP-LC retention time turned out to be 695 s.
To `Cc1nc(N2CCN(c3ncccn3)CC2)nc2c1C(=O)CCC2` belongs 886 s.
Under `Cc1cccc(-c2ncccc2CNS(=O)(=O)c2cc(F)ccc2C)c1` stands 774 s; under `NC(=O)c1nc(-c2ccccc2F)n2c1CCCCC2`, 722 s; under `COc1cc(NC(=O)N2CCC(OC3CCN(S(C)(=O)=O)CC3)CC2)cc(OC)c1`, 704 s.
Under `Cn1c(C(=O)N2CCN(c3ncccn3)CC2)cc2c(-c3cccs3)nn(-c3ccccc3)c21` stands 1030 s.
For `COc1cc2c(cc1CNC(=O)Cn1cc(C(=O)c3ccco3)c3ccccc31)OCCCO2`, the RP-LC retention time stood at 902 s.
Molecule `Cc1ccc(NC(=O)N2C[C@@H]3C[C@H](NS(=O)(=O)c4ccccc4)[C@H]2C3)c(C)c1` displayed an RP-LC retention time of 832 s.
Under `CCOC(=O)c1ccc2c(=O)c(C(=O)OCC)c[nH]c2c1` stands 661 s.
`CCS(=O)(=O)NCc1ccc2c(c1)CCN2C(=O)c1ccccc1`: the RP-LC retention time came to 657 s.
`Cc1ccc(NC(=O)c2cc(C)n3nc(C)cc3n2)c(C)c1` showed an RP-LC retention time of 1140 s.
Under `CCOC(=O)C(C)Oc1cccc2c(=O)n(CC(=O)Nc3ccc([N+](=O)[O-])cc3)ccc12` (stereo unspecified) stands 842 s.
In turn, `Cc1ccc(Cn2c(=O)c(N3CCN(C(=O)Nc4ccc5c(c4)OCO5)CC3)nc3cccnc32)cc1` registered an RP-LC retention time of 1070 s.
As for `COc1cccc(CNC(=O)C2CCCN(c3nnc(C)c4c(C)n(-c5ccccc5)nc34)C2)c1` (stereo unspecified), the RP-LC retention time was found to be 715 s.
Under `CCN1CCn2cc(S(=O)(=O)Nc3ccc(C)cc3C)cc2C1=O` stands 746 s; under `CCOc1ccc(-c2nc(-c3ccc4nnn(C)c4c3)no2)cc1`, 1070 s.
With `O=C(c1cccs1)N1CCC(n2c(-c3ccoc3)nc3cccnc32)C1` (stereo unspecified), the RP-LC retention time was determined as 685 s.
To `Cc1ccsc1CN1CCc2nc(N3CCN(c4ccc(F)cc4)CC3)ncc2C1` belongs 734 s; to `Cc1ccc(Sc2nccnc2N2CCC(C(=O)NCc3ccc(F)cc3F)CC2)cc1`, 1070 s; to `Cc1ccc(OCC(=O)NCc2ccc(F)cc2)nn1`, 607 s.
In turn, `CCOC(=O)c1cc(C2CC2)nc2c1c(=O)n(Cc1ccc(F)cc1Cl)c(=O)n2C` registered an RP-LC retention time of 855 s.
Under `CCCC(=O)N1CCC2(C1)C(=O)Nc1ccc(OC)cc12` (stereo unspecified) stands 652 s.
Under `Cc1ccccc1NC(=O)N1CCC(CC(=O)N2CCCCC2)CC1` stands 732 s; under `O=C(c1cccnc1)N1CCc2cc(-c3ccno3)ccc21`, 683 s.
To `CCc1noc(-c2cccn2CC#N)n1` belongs 824 s.
In turn, `O=C(c1cccc(C(F)(F)F)c1)N1CCN(c2nc(CN3CCCCC3)cs2)CC1` came in with an RP-LC retention time of 684 s.
To `Cn1cc(-c2cc3n(n2)CCC(=O)N3CCCC(=O)NCc2cccnc2)c2ccccc21` belongs 616 s; to `COCCC1(NC(=O)c2ocnc2C)CCN(S(C)(=O)=O)CC1`, 614 s.
Under `COCCCn1c(=O)c2ccccc2n(Cc2nc(-c3cccc(C)c3)no2)c1=O` stands 855 s; under `C[C@H]1CN(C(=O)C2CCCC2)C[C@@H]1c1nc(-c2ccccc2)no1`, 1060 s; under `O=C(Cn1cnc(-c2ccc(F)cc2)cc1=O)NCc1cccs1`, 703 s.
In turn, `Cc1nc(-c2csc(S(=O)(=O)N3CCC(C(=O)NCCN4CCOCC4)CC3)c2)no1` had an RP-LC retention time of 596 s.
Under `CCc1cc2c(N3CCCC(C(=O)NCCCN4CCN(C)CC4)C3)ncnc2s1` (stereo unspecified) stands 585 s; under `CC(C)N1CCN(C(=O)c2cn(-c3ccc(-c4nc(C(C)(C)C)no4)cn3)cn2)CC1`, 671 s.
Under `Cc1cccc(-c2nc(Cn3ccnc3)no2)c1` stands 600 s; under `CCOc1ccccc1C(=O)Nc1ccc2c(c1)Sc1ncccc1C(=O)N2C`, 806 s.
Molecule `CCNC(=O)c1n[nH]c2c1CN(C(=O)c1ccc3c(c1)OCO3)CC2` came in with an RP-LC retention time of 634 s.
As for `CN1CCN(CCNC(=O)c2nn(-c3ccc(Cl)cc3)c3c(=O)n(C)cnc23)CC1`, the RP-LC retention time was 602 s.
On to `CC1(C)Cc2cccc(OCC(=O)N3CCN(Cc4nnnn4-c4ccccc4)CC3)c2O1`, for which the RP-LC retention time amounted to 811 s.
Under `c1cc(-c2noc(C3CC3)n2)ccc1OC1CNC1` stands 616 s.
`CCn1ccc(C(=O)N2CCc3c(-c4ccc(OC)cc4)cccc3[C@H]2C)n1` came in with an RP-LC retention time of 966 s.
The molecule `O=C(Nc1cccc(Cl)c1)Nc1nccn(-c2ccc3c(c2)CCC3)c1=O` had an RP-LC retention time of 1170 s.
Under `Cc1cc(NC(=O)CSc2c(-c3ccccc3)[nH]c3ccccc23)no1` stands 846 s; under `Cc1ccc(CNC(=O)c2ccc3cnn(Cc4ccc(F)cc4)c3c2)o1`, 916 s; under `O=C(NCc1cccs1)c1ccc2c(c1)NC(=O)C1CCCCN21` (stereo unspecified), 688 s.
Regarding `COc1ccc(N2C=C(C(=O)N3CCCC3)S(=O)(=O)c3ccccc32)cc1OC`, the RP-LC retention time is 726 s.
For the molecule `Cc1nnc2n1CCC(NC(=O)Cc1ccsc1)CC2` (stereo unspecified), the RP-LC retention time was found to be 573 s.
`CCc1ccc2c(c1)cc(S(=O)(=O)c1ccccc1)c(=O)n2CC(=O)N1CCCCC1` returned an RP-LC retention time of 620 s.
To `Cc1ccc(-c2nc(C3CCN(S(=O)(=O)c4cccc(F)c4)CC3)no2)cc1` belongs 1160 s; to `CCCCOc1cc(CC2CNC(=O)N2)ccc1OC` (stereo unspecified), 798 s; to `Cc1ccc(N2CCC(NC(=O)Cc3cccc(F)c3)C2=O)cc1` (stereo unspecified), 829 s.
To `CN1c2ccccc2C(=O)NC12CCN(C(=O)NCCc1ccccc1)CC2` belongs 728 s; to `CSc1ccc(CNC(=O)c2nnn3c2COC(c2ccc(F)cc2)C3)cc1` (stereo unspecified), 980 s; to `C[C@@H](NC(=O)c1ccccc1Br)C(=O)NCc1cscn1`, 635 s.
`O=C(Cn1cnc(-c2noc(-c3ccc(F)cc3)n2)c1)NCc1ccc(F)cc1`: the RP-LC retention time worked out at 857 s.
To `COCCN1C(=O)c2ccccc2C(C(=O)NCCCN2CCCCC2)C1c1cccs1` (stereo unspecified) belongs 612 s; to `CCN(CC)CCNC(=O)CSCc1ccc(C)cc1`, 631 s; to `CSc1ccc(CN2CCN(c3cnn4c(C5CC5)nnc4c3)CC2)cc1`, 603 s.
Under `CCOc1ccc(S(=O)(=O)N2CCC(C(=O)NCc3ccccn3)CC2)cc1` stands 658 s.
To `c1ccc(-c2csc(Nc3ccccn3)n2)cc1` belongs 860 s; to `Cc1ccccc1Nc1c(-c2ccc(Cl)cc2)nc2cccc(C)n12`, 804 s; to `O=C(NCC1CCOCC1)c1nccc2ccccc12`, 717 s.
Take `COc1cc(-c2nc3nc4ccccc4nc3n2CC2CCCO2)cc(OC)c1OC` (stereo unspecified): the RP-LC retention time turned out to be 795 s.
To `Cc1noc(-c2nc(-c3cccc(F)c3)no2)n1` belongs 990 s; to `O=C(NCc1ccc(F)cc1F)c1sc2ncccc2c1-n1cccc1`, 1020 s.
`O=C(Cn1c(=O)oc2ccccc21)N1CCC(Oc2nc3c(Cl)cccc3s2)CC1` came in with an RP-LC retention time of 979 s.
`CC(C)(C)NC(=O)NC1CCN(C(=O)c2ccccc2)C1` (stereo unspecified) gave an RP-LC retention time of 683 s.
To `Cc1ccc(CNC(=O)CSc2ccc(N3CCCC(C(=O)NC4CC4)C3)nn2)cc1` (stereo unspecified) belongs 643 s; to `Cc1cc(N2CCN(c3ccccn3)CC2)n2nc(-c3cccc(Cl)c3)c(C)c2n1`, 828 s.
As to `Cn1cnc(S(=O)(=O)N2CC(Oc3ccc(-c4nc(-c5ccccc5)no4)cc3)C2)c1`, the RP-LC retention time was 983 s.
To `N#Cc1cccc(NC(=O)Cn2cccc(-c3nc(-c4ccc(Cl)cc4)no3)c2=O)c1` belongs 926 s.
